Results as given in US20220348595A1, “COMPOUNDS AND METHODS FOR THE TARGETED DEGRADATION OF ESTROGEN RECEPTORS” (Endotarget Inc., priority 2021, published 2022).

Legend:
Format in all cases: cell-based
ER = biological target: T1, ER (Homo sapiens, UniProt P03372); experiment: ER antagonism (T47D ERE luciferase), T47d-kb-Luc cells; conditions: read-out: IC50 (ER antagonistm)
T1 construct: endogenous in cells; host or cells: T47d-kb-Luc (T47D stably transfected with a luciferase reporter gene only)
T1 sequence (P03372 1-595): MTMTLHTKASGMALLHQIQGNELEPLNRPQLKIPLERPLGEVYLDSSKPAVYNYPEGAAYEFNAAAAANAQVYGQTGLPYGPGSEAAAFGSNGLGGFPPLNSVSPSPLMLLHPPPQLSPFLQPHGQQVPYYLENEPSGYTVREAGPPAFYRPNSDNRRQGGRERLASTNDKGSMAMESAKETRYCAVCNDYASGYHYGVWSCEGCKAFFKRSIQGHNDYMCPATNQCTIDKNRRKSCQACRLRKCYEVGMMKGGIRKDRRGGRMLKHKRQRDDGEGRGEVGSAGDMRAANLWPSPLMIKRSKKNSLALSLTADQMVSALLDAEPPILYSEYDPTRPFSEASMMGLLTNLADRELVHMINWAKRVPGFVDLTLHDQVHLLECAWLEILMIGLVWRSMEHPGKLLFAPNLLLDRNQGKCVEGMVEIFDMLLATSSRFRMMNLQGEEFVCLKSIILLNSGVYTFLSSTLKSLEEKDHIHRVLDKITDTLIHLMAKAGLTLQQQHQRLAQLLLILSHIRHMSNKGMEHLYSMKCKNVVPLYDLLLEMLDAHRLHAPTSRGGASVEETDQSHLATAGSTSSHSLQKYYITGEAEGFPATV
In short: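 Five sample concentrations, each in quadruplicate and repeated in at least three experiments, were tested for blocking of estradiol activity. Values were expressed relative to the estradiol control. The cell system was the T47d-kb-Luc stable breast cancer line.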

[1] = tested on: MCF-7 breast cancer cells; experiment: MCF-7 proliferation / cell viability assay; conditions: Homo sapiens, MCF7; MCF-7 proliferation with 0.1 nM 17-beta estradiol; read-out: IC50 (anti-proliferation)
In short: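 Survival ratio, with vehicle (DMSO) as 100%, was derived from Coulter-counted viable cell numbers. Cells were grown in 5% FBS DMEM and dosed for 5 days across six concentrations between 10^−10 M and 10^−5 M.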

ERα = biological target: T2, ERα (Homo sapiens, UniProt P03372); experiment: ER degradation in MCF-7 cells (Western blot); conditions: for DC50: ER degradation, 24 hours; for Dmax: MCF7, Maximal ER degradation, read-out: Dmax
T2 construct: endogenous in cells; host or cells: MCF-7
T2 sequence (P03372 1-595): T1 sequence (P03372 1-595)
In short: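 ERα levels assessed by Western blot (50 μg lysate protein, infrared scanner) after 24-hour exposure of MCF-7 cells to varied compound concentrations. Values reported as DC50, the concentration halving ER expression, and Dmax, the maximal ER reduction achieved across tested concentrations.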

IC50 (ER) [nM] | IC50 [1] [nM] | DC50 (ERα) [nM] | Dmax (ERα) [%] | SMILES
10 to 50 | 10 to 50 | 10 to 50 | > 90 | CC/C(=C(/c1ccc(B(O)O)cc1)c1ccc(N2CCN(CCN3CCN(c4ccc5c(c4)C(=O)N(C4CCC(=O)NC4=O)C5=O)CC3)CC2)cc1)c1ccccc1 (centres unmarked) [Compound 60, (E)-(4-(1-(4-(4-(2-(4-(2-(2,6-dioxopiperidin-3-yl)-1,3-dioxoisoindolin-5-yl)piperazin-1-yl)ethyl)piperazin-1-yl)phenyl)-2-phenylbut-1-en-1-yl)phenyl)boronic acid]
10 to 50 | 10 to 50 | < 10 | > 90 | CC/C(=C(\c1ccc(B(O)O)cc1)c1ccc(N2CCN(CCN3CCN(c4ccc5c(c4)CN(C4CCC(=O)NC4=O)C5=O)CC3)CC2)cc1)c1ccccc1 (centres unmarked) [Compound 61, (Z)-(4-(1-(4-(4-(2-(4-(2-(2,6-dioxopiperidin-3-yl)-1-oxoisoindolin-5-yl)piperazin-1-yl)ethyl)piperazin-1-yl)phenyl)-2-phenylbut-1-en-1-yl)phenyl)boronic acid]
10 to 50 | 10 to 50 | < 10 | > 90 | CC/C(=C(/c1ccc(B(O)O)cc1)c1ccc(N2CCN(CCN3CCN(c4ccc5c(c4)CN(C4CCC(=O)NC4=O)C5=O)CC3)CC2)cc1)c1ccccc1 (centres unmarked) [Compound 62, (E)-(4-(1-(4-(4-(2-(4-(2-(2,6-dioxopiperidin-3-yl)-1-oxoisoindolin-5-yl)piperazin-1-yl)ethyl)piperazin-1-yl)phenyl)-2-phenylbut-1-en-1-yl)phenyl)boronic acid]
10 to 50 | 10 to 50 | 10 to 50 | > 90 | CC/C(=C(\c1ccc(B(O)O)cc1)c1ccc(N2CCC(CCN3CCN(c4ccc5c(c4)C(=O)N(C4CCC(=O)NC4=O)C5=O)CC3)CC2)cc1)c1ccccc1 (centres unmarked) [Compound 63, (Z)-(4-(1-(4-(4-(2-(4-(2-(2,6-dioxopiperidin-3-yl)-1,3-dioxoisoindolin-5-yl)piperazin-1-yl)ethyl)piperidin-1-yl)phenyl)-2-phenylbut-1-en-1-yl)phenyl)boronic acid]
10 to 50 | 10 to 50 | 10 to 50 | > 90 | CC/C(=C(/c1ccc(B(O)O)cc1)c1ccc(N2CCC(CCN3CCN(c4ccc5c(c4)C(=O)N(C4CCC(=O)NC4=O)C5=O)CC3)CC2)cc1)c1ccccc1 (centres unmarked) [Compound 64]
< 10 | 10 to 50 | < 10 | > 90 | CC/C(=C(\c1ccc(B(O)O)cc1)c1ccc(N2CCN(CCC3CCN(c4ccc5c(c4)C(=O)N(C4CCC(=O)NC4=O)C5=O)CC3)CC2)cc1)c1ccccc1 (centres unmarked) [Compound 65, (Z)-(4-(1-(4-(4-(2-(1-(2-(2,6-dioxopiperidin-3-yl)-1,3-dioxoisoindolin-5-yl)piperidin-4-yl)ethyl)piperazin-1-yl)phenyl)-2-phenylbut-1-en-1-yl)phenyl)boronic acid]
10 to 50 | 10 to 50 | < 10 | > 90 | CC/C(=C(/c1ccc(B(O)O)cc1)c1ccc(N2CCN(CCC3CCN(c4ccc5c(c4)C(=O)N(C4CCC(=O)NC4=O)C5=O)CC3)CC2)cc1)c1ccccc1 (centres unmarked) [Compound 66, (E)-(4-(1-(4-(4-(2-(1-(2-(2,6-dioxopiperidin-3-yl)-1,3-dioxoisoindolin-5-yl)piperidin-4-yl)ethyl)piperazin-1-yl)phenyl)-2-phenylbut-1-en-1-yl)phenyl)boronic acid]
< 10 | < 10 | < 10 | > 90 | CC/C(=C(\c1ccc(B(O)O)cc1)c1ccc(N2CCN(CCC3CCN(c4ccc5c(c4)CN(C4CCC(=O)NC4=O)C5=O)CC3)CC2)cc1)c1ccccc1 (centres unmarked) [Compound 67, (Z)-(4-(1-(4-(4-(2-(1-(2-(2,6-dioxopiperidin-3-yl)-1-oxoisoindolin-5-yl)piperidin-4-yl)ethyl)piperazin-1-yl)phenyl)-2-phenylbut-1-en-1-yl)phenyl)boronic acid]
< 10 | < 10 | < 10 | > 90 | CC/C(=C(/c1ccc(B(O)O)cc1)c1ccc(N2CCN(CCC3CCN(c4ccc5c(c4)CN(C4CCC(=O)NC4=O)C5=O)CC3)CC2)cc1)c1ccccc1 (centres unmarked) [Compound 68, (E)-(4-(1-(4-(4-(2-(1-(2-(2,6-dioxopiperidin-3-yl)-1-oxoisoindolin-5-yl)piperidin-4-yl)ethyl)piperazin-1-yl)phenyl)-2-phenylbut-1-en-1-yl)phenyl)boronic acid]
< 10 | < 10 | < 10 | > 90 | CC/C(=C(/c1ccc(OCCN2CCN(CC3CCN(c4ccc5c(c4)CN([C@@H]4CCC(=O)NC4=O)C5=O)CC3)CC2)cc1)c1ccc(B(O)O)cc1)c1ccccc1 [Compound 70]
< 10 | < 10 | < 10 | > 90 | CC/C(=C(\c1ccc(OCCN2CCN(CC3CCN(c4ccc5c(c4)CN([C@H]4CCC(=O)NC4=O)C5=O)CC3)CC2)cc1)c1ccc(B(O)O)cc1)c1ccccc1 [Compound 71]
< 10 | < 10 | < 10 | > 90 | CC/C(=C(\c1ccc(OCCN2CCN(CC3CCN(c4ccc5c(c4)CN([C@@H]4CCC(=O)NC4=O)C5=O)CC3)CC2)cc1)c1ccc(B(O)O)cc1)c1ccccc1 [Compound 72]
< 10 | < 10 | < 10 | > 90 | CC/C(=C(/c1ccc(OCCN2CCC(CN3CCN(c4ccc5c(c4)CN([C@H]4CCC(=O)NC4=O)C5=O)CC3)CC2)cc1)c1ccc(B(O)O)cc1)c1ccccc1 [Compound 73, (S,Z)-(4-(1-(4-(2-(4-((4-(2-(2,6-dioxopiperidin-3-yl)-1-oxoisoindolin-5-yl)piperazin-1-yl)methyl)piperidin-1-yl)ethoxy)phenyl)-2-phenylbut-1-en-1-yl)phenyl)boronic acid]
< 10 | < 10 | < 10 | > 90 | CC/C(=C(/c1ccc(OCCN2CCC(CN3CCN(c4ccc5c(c4)CN([C@@H]4CCC(=O)NC4=O)C5=O)CC3)CC2)cc1)c1ccc(B(O)O)cc1)c1ccccc1 [Compound 74, (R,Z)-(4-(1-(4-(2-(4-((4-(2-(2,6-dioxopiperidin-3-yl)-1-oxoisoindolin-5-yl)piperazin-1-yl)methyl)piperidin-1-yl)ethoxy)phenyl)-2-phenylbut-1-en-1-yl)phenyl)boronic acid]
< 10 | < 10 | < 10 | > 90 | CC/C(=C(\c1ccc(OCCN2CCC(CN3CCN(c4ccc5c(c4)CN([C@H]4CCC(=O)NC4=O)C5=O)CC3)CC2)cc1)c1ccc(B(O)O)cc1)c1ccccc1 [Compound 75, (S,E)-(4-(1-(4-(2-(4-((4-(2-(2,6-dioxopiperidin-3-yl)-1-oxoisoindolin-5-yl)piperazin-1-yl)methyl)piperidin-1-yl)ethoxy)phenyl)-2-phenylbut-1-en-1-yl)phenyl)boronic acid]
< 10 | < 10 | < 10 | > 90 | CC/C(=C(\c1ccc(OCCN2CCC(CN3CCN(c4ccc5c(c4)CN([C@@H]4CCC(=O)NC4=O)C5=O)CC3)CC2)cc1)c1ccc(B(O)O)cc1)c1ccccc1 [Compound 76]
< 10 | < 10 | < 10 | > 90 | CC/C(=C(\c1ccc(O)cc1)c1ccc(OCCN2CCN(C(=O)N3CCN(c4ccc5c(c4)CN(C4CCC(=O)NC4=O)C5=O)CC3)CC2)cc1)c1ccccc1 (centres unmarked) [Compound 77]
